Source: US4075332A (priority 1976, dated 1978)
Read-outs that look alike come from different tables or passages of the source.

Legend:
Southern army worm [1] = settings: southern armyworm, in vivo
House fly = assay: whole plant or invertebrate; settings: Musca domestica, 48 h; for mortality at 20 ppm: read-out: House Fly Spray Mortality, % (at 20 ppm)
bovine cholinesterase = bovine cholinesterase (Bos taurus, UniProt P23795); assay: biochemical; format: biochemical
Root-knot nematode = settings: in vivo
Mexican bean beetle = assay: whole plant or invertebrate; settings: Epilachna varivestis
Corn rootworm larvae = assay: whole plant or invertebrate; settings: soil, 120 h
Bollworm larvae = assay: Bollworm test on cotton plants; format: in vivo; settings: Helicoverpa zea, Table XIV, 0.5 lbs/acre
Procedure: Bollworms: Bollworm larvae used in the present study were progeny of adult moths collected from light traps stationed in cotton fields. The larvae were reared on the Vanderzant-Adkisson Special Wheat Germ Diet for Insects. This diet was fortified with Vanderzant's Insect Vitamin Fortification. The diet and the vitamin fortification were obtaind from Nutritional Biochemicals Corporation, Cleveland, Ohio. The larvae were reared and tested in continuous illumination at 78±5° […]. Only third and fourth instar larvae which weighed between 25 and 60 mg. were used in the tests.
Insecticidal sprays were made by the conventional low-volume (CLV) method. CLV sprays were applied through a 6X hollow-cone nozzle calibrated to deliver the equivalent of 3.5 ga./acre of the water/emulsion spray mixture. Sprays were applied to individual cotton plants grown in one gallon buckets. After treatment the plants were allowed to dry for 1 to 2 hours in the open air before being transported to a holding room. The larvae were placed on the treated leaf surfaces and held singly in small snap-on type plastic screen cages of about 11/2 inches in diameter. Untreated control groups were maintained for each test replicate so that treatment mortalities could be adjusted according to Abbott's formula. Treatments were replicated 3 times. Each replicate contained 20 larvae. […]

Spider mites [2] = assay: whole plant or invertebrate; settings: Tetranychus urticae; for mortality at 250 ppm: 48 h, read-out: Mortality, % - Spider Mites Contact
Spider mites [3] = assay: Mite, Systemic; format: in vivo, two-spotted mite; settings: Tetranychus urticae, read-out: Mortality, % - Spider Mites Systemic
Procedure: (§1) In the insecticidal and miticidal tests, the experimental compounds were tested as aqueous emulsions. These emulsions were prepared by dissolving the compound in acetone and dispersing it in distilled water with Triton X-100, an alkylaryl polyether alcohol derived by the reaction of i-octylphenol with ethylene oxide, to give spray emulsions containing the desired concentrations of the compound. These emulsions were then used in standard laboratory tests described below.
Mite, Systemic: Bean plants infested with the two-spotted mites were treated by applying 20 ml. of the formulated test chemical to the soil.

Bean aphids [4] = assay: whole plant or invertebrate; settings: Aphis fabae, 48 h; for mortality at 250 ppm: read-out: Mortality, % - Bean Aphids Contact
Southern army worm [5] = assay: whole plant or invertebrate; settings: Spodoptera eridania; for mortality at 250 ppm: read-out: Mortality, % - Southern ArmyWorm
in vivo = settings: rat, po
Bean aphids [6] = assay: Aphid, Systemic; format: in vivo, bean aphid; settings: Aphis fabae, 48 h, read-out: Mortality, % - Bean Aphids Systemic
Procedure: as §1
Aphid, Systemic: Nasturtium plants infested with the bean aphid were treated by applying 20 ml. of the formulated test chemical to the soil. The degree of aphid control was rated after 2 days.

[7] = Thermal stability of products (GC / nmr observation); format: physicochemical; settings: for thermal stability: general statement
Text: The corresponding primary alkyl derivatives such as the S'-n-propyl compound are stable under similar conditions.
The ethyl sulfinylmethyl product was unstable at room temperature.

Black Blow Flies = assay: Animal systemic insecticide test in guinea pigs, black blow fly larvae; format: in vivo, black blow fly (host: guinea pig); settings: Calliphoridae, in Cavia porcellus, 24 h, Table XI, read-out: Lowest Dosage (mg/kg) Causing Complete Kill of Larvae of Black Blow Flies
Procedure: (§2) The experimental compounds, formulated as 5% solutions in Tween 20, were administered orally and subcutaneously to guonea pigs which have been artificially infested with nymphs of the lone star tick at 48 hours before treatment, larvae of the secondary screw worm and of the black blow fly at 24 hours before treatment. Mortality was observed 24 hours after the treatment. For the details of the techniques, reference is made to the publications of R. O. Drummond in the Journal of Economic Entomology, particularly in Vol. 60, pages 733-737 in 1967.

Secondary Screw Worms = assay: Animal systemic insecticide test in guinea pigs, secondary screw worm larvae; format: in vivo, secondary screw worm (host: guinea pig); settings: Cavia porcellus, 24 h, Table XI, read-out: Lowest Dosage (mg/kg) Causing Complete Kill of Larvae of Secondary Screw Worms
Procedure: as §2

Lone Star Ticks = assay: Animal systemic insecticide test in guinea pigs, lone star tick nymphs; format: in vivo, lone star tick (host: guinea pig); settings: Cavia porcellus, 24 h, Table XI, read-out: Lowest Dosage (mg/kg) Causing Complete Kill of Nymphs of Lone Star Ticks
Procedure: as §2

[8] = read-out: Mexican Bean Beetle Larvae Mortality, %
[9] = read-out: Corn Rootworm Larvae Mortality, % (at 2.5 ppm)
[10] = 24 h, read-out: Per Cent Mortality (24 hours After Application)
[11] = 48 h, read-out: Per Cent Mortality (48 hours After Application)
[12] = 72 h, read-out: Per Cent Mortality (72 hours After Application)
[13] = read-out: Mortality, % - Mexican Bean Beetles
[14] = read-out: Mortality, % - Mexican Bean Beetle
[15] = read-out: Mortality of Southern Armyworm, %

Sequence of bovine cholinesterase (P23795-2 with tags, fused parts or gaps limits assumed): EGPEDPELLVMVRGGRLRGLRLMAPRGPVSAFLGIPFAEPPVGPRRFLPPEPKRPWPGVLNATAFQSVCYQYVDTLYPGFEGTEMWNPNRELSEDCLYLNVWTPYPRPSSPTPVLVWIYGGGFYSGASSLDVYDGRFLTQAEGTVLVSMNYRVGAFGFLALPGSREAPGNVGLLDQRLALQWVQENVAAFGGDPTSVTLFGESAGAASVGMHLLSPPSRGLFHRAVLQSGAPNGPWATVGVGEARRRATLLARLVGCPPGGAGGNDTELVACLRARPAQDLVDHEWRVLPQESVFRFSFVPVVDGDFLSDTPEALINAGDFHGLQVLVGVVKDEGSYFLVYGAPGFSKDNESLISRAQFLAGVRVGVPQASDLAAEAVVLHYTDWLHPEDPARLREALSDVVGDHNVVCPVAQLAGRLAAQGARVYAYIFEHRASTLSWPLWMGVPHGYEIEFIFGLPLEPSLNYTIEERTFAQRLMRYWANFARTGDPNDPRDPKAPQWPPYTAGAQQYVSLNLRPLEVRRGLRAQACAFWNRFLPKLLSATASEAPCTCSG

CCCSP(=O)(OCC)SCSc1ccc(Cl)cc1 (stereo not drawn) [Example 31, O-Ethyl S-1-Propyl S'-4-Chlorophenyllthiomethyl Dithiophosphate]
Southern Army Worm Mortality, % (Southern army worm [1]): 100% | mortality at 20 ppm (House fly): 100% | IC50 (bovine cholinesterase): 0.0041 µM | Nematodes Rate, Control after 1-4 weeks (at 25#/acre) (Root-knot nematode): 100 | mortality at 100 ppm (Mexican bean beetle; [8]): 100% | mortality at 2.5 ppm (Corn rootworm larvae; [9]): 0%

CCCSP(=O)(OCC)SCC(C)SC (stereo not drawn) [drawing 53]
mortality at 560.425 g/ha (Bollworm larvae; [10]): 84% | mortality at 560.425 g/ha (Bollworm larvae; [11]): 96% | mortality at 560.425 g/ha (Bollworm larvae; [12]): 96%

CCCSP(=O)(OCC)SCCSC(C)C (stereo not drawn) [Example 3, O-Ethyl S-1-Propyl S'-2-i-Propylthioethyl Dithiophosphate]
mortality at 250 ppm (Spider mites [2]): 100% | mortality at 250 ppm (Spider mites [3]): 85% | mortality at 250 ppm (Mexican bean beetle; [13]): 100% | mortality at 250 ppm (Bean aphids [4]): 70% | mortality at 250 ppm (Southern army worm [5]): 100%

CCCSP(=O)(OCC)SCCS(C)(=O)=O (stereo not drawn) [Example 7, O-Ethyl S-1-Propyl S'-(2-Methylsulfonylethyl) Dithiophosphate]
mortality at 250 ppm (Spider mites [2]): 100% | mortality at 250 ppm (Spider mites [3]): 100% | LD50 at 336 h (in vivo): > 100 mg/kg | mortality at 250 ppm (Bean aphids [6]): 100% | Nematode Control,% at 25 lb/acre (Root-knot nematode): 100% | mortality at 250 ppm (Mexican bean beetle; [14]): 100% | mortality at 250 ppm (Bean aphids [4]): 100% | mortality at 250 ppm (Southern army worm [5]): 100%

CCCSP(=O)(OCC)SC[S+]([O-])CC (stereo not drawn) [ethyl sulfinylmethyl product]
stability (nmr) ([7]; room temperature): unstable

CCOP(=O)(SCC)SCCSCC (stereo not drawn) [reference compound]
LD50 at 336 h (in vivo): 100 mg/kg

CCCSP(=O)(OCC)SCC[S+](C)[O-] (stereo not drawn) [Example 6, O-Ethyl S-1-Propyl S'-2-Methylsulfinylethyl Dithiophosphate]
minimal effective dose (Black Blow Flies; oral): 50 mg/kg | minimal effective dose (Black Blow Flies; sc, subcutaneous): 50 mg/kg | mortality at 250 ppm (Spider mites [2]): 100% | mortality at 250 ppm (Spider mites [3]): 100% | LD50 at 336 h (in vivo): 46 mg/kg | mortality at 250 ppm (Bean aphids [6]): 100% | Nematode Control,% at 25 lb/acre (Root-knot nematode): 100% | minimal effective dose (Secondary Screw Worms; oral): 100 mg/kg | minimal effective dose (Secondary Screw Worms; sc, subcutaneous): 50 mg/kg | minimal effective dose (Lone Star Ticks; oral): 50 mg/kg | minimal effective dose (Lone Star Ticks; sc, subcutaneous): 50 mg/kg | mortality at 250 ppm (Mexican bean beetle; [14]): 100% | mortality at 250 ppm (Bean aphids [4]): 100% | mortality at 250 ppm (Southern army worm [5]): 100%

CCOP(=S)(OCC)SCC(C)SC (stereo not drawn) [reference compound]
LD50 at 336 h (in vivo): 25 to 50 mg/kg

CCOP(=O)(SCSCC)SCC(C)C (stereo not drawn) [Example 12, O-Ethyl S-Isobutyl S'Ethylthiomethyl Dithiophosphate]
thermal stability [7]: thermal instability

CCCSP(=O)(OCC)SCC[S+]([O-])C(C)C (stereo not drawn) [Example 8, O-Ethyl S-1-Propyl S'-2-i-Propylsulfinylethyl Dithiophosphate]
mortality at 250 ppm (Spider mites [2]): 95% | mortality at 250 ppm (Spider mites [3]): 90% | Nematode Control,% at 25 lb/acre (Root-knot nematode): 75% | mortality at 250 ppm (Mexican bean beetle; [14]): 100% | mortality at 250 ppm (Bean aphids [4]): 100% | mortality at 250 ppm (Southern army worm [5]): 90%

CCOP(=O)(SCCSCC)SC(C)(C)C (stereo not drawn) [Example 10, O-Ethyl S-t-Butyl S'-2-Ethylthioethyl Dithiophosphate]
thermal stability [7]: thermally highly unstable | thermal stability on gas chromatographic analysis ([7]; injector temperature of 200° C): decomposed to yield isobutylene | mortality at 50 ppm (Southern army worm [5]; [15]): 0% | mortality at 100 ppm (Southern army worm [5]; [15]): 0%

CCCSP(=O)(OCC)SCC(CC)SC (stereo not drawn) [Example 38, O-Ethyl S-1-Propyl S'-2-Methylthiobutyl Dithiophosphate]
Mortality Produced at 50 ppm, % - Southern Army Worm (Southern army worm [1]): 80% | mortality at 50 ppm (House fly; read-out: Mortality Produced at 50 ppm, % - Houseflies): 100% | mortality at 50 ppm (Spider mites [2]; read-out: Mortality Produced at 50 ppm, % - Spider Mites): 100% | Nematodes Control % at 25 lb/acre (Root-knot nematode): 90% | mortality at 50 ppm (Mexican bean beetle; read-out: Mortality Produced at 50 ppm, % - Mexican Bean Beetles): 10% | mortality at 2.5 ppm (Corn rootworm larvae; read-out: Corn Rootworm Mortality, % at 2.5 ppm): 40% | mortality at 50 ppm (Bean aphids [4]; read-out: Mortality Produced at 50 ppm, % - Bean Aphids): 100%

CCOP(=S)(OCC)SCCSCC [Disyston, reference compound]
Southern Army Worm Mortality, % (Southern army worm [1]): 0% | mortality at 20 ppm (House fly): 100% | IC50 (bovine cholinesterase): 380 µM | LD50 at 336 h (in vivo): 25 mg/kg | Nematodes Rate, Control after 1-4 weeks (at 25#/acre) (Root-knot nematode): 0 | mortality at 50 ppm (Mexican bean beetle; [8]): 30% | mortality at 2.5 ppm (Corn rootworm larvae; [9]): 0%

CCOP(=S)(OCC)SCC(C)SCC (stereo not drawn) [reference compound]
LD50 at 336 h (in vivo): 25 to 50 mg/kg

CCCSC(C)CSP(=O)(OCC)SCCC (stereo not drawn) [drawing 54]
mortality at 560.425 g/ha (Bollworm larvae; [10]): 87% | mortality at 560.425 g/ha (Bollworm larvae; [11]): 94% | mortality at 560.425 g/ha (Bollworm larvae; [12]): 99%

CCCSP(=O)(OCC)SCCSC (stereo not drawn) [drawing 52]
mortality at 560.425 g/ha (Bollworm larvae; [10]): 72% | mortality at 560.425 g/ha (Bollworm larvae; [11]): 80% | mortality at 560.425 g/ha (Bollworm larvae; [12]): 89%

CCOP(=S)(OCC)SCSCC [Thimet, reference compound]
Southern Army Worm Mortality, % (Southern army worm [1]): 0% | mortality at 20 ppm (House fly): 90% | IC50 (bovine cholinesterase): 31 µM | Nematodes Rate, Control after 1-4 weeks (at 25#/acre) (Root-knot nematode): 0 | mortality at 100 ppm (Mexican bean beetle; [8]): 90% | mortality at 2.5 ppm (Corn rootworm larvae; [9]): 100%

CCCSCCSP(=O)(OCC)SCCC (stereo not drawn) [2 (CIP)]
LD50 at 336 h (in vivo): 215 mg/kg

CCOP(=O)(SCC(C)C)SC[S+]([O-])CC (stereo not drawn) [ethylsulfinylmethyl ester, O-ethyl S-isobutyl S'-ethylsulfinylmethyl dithiophosphate]
thermal stability [7]: thermal instability

CCCSP(=O)(OCC)SCCSc1ccccc1 (stereo not drawn) [Example 4, O-Ethyl S-1-Propyl S-2-Phenylthioethyl Dithiophosphate]
mortality at 250 ppm (House fly; read-out: Mortality, % - House Flies): 95% | minimal effective dose (Black Blow Flies; oral): > 100 mg/kg | minimal effective dose (Black Blow Flies; sc, subcutaneous): > 100 mg/kg | mortality at 250 ppm (Spider mites [2]): 100% | mortality at 250 ppm (Spider mites [3]): 40% | mortality at 250 ppm (Bean aphids [6]): 20% | minimal effective dose (Secondary Screw Worms; oral): > 100 mg/kg | minimal effective dose (Secondary Screw Worms; sc, subcutaneous): > 100 mg/kg | minimal effective dose (Lone Star Ticks; oral): > 100 mg/kg | minimal effective dose (Lone Star Ticks; sc, subcutaneous): > 100 mg/kg | mortality at 250 ppm (Mexican bean beetle; [13]): 100% | mortality at 250 ppm (Bean aphids [4]): 95% | mortality at 250 ppm (Southern army worm [5]): 100%

CCCSP(=O)(OCC)SCC(C)S(C)(=O)=O (stereo not drawn) [Example 9, O-Ethyl S-1-Propyl S'-2-Methylsulfonylpropyl Dithiophosphate]
mortality at 250 ppm (Spider mites [2]): 90% | mortality at 250 ppm (Spider mites [3]): 90% | mortality at 250 ppm (Bean aphids [6]): 95% | Nematode Control,% at 25 lb/acre (Root-knot nematode): 80% | mortality at 250 ppm (Mexican bean beetle; [14]): 100% | mortality at 250 ppm (Bean aphids [4]): 90% | mortality at 250 ppm (Southern army worm [5]): 100%
